Laboratory results: patent publication EP2050748A1, “Novel fused pyrimidines” (Bayer Schering Pharma Aktiengesellschaft, priority 2007, dated 2009)

Test system: phosphorylated GSK3 (Ser9)
Assay: Cellular pGSK3 assay (phospho-GSK3 ELISA)
Type: cell-based
Settings: Homo sapiens, MCF7 cells, compound incubated 48h
Protocol: In order to study the cellular activity of the compounds according to the present invention, an ELISA-based assay has been established for the phosphorylated protein glycogen synthetase kinase 3 (GSK3). The assay is based on a solid phase sandwich ELISA that detects endogenous levels of phosphorylated GSK3 using a phospho-GSK3 (Ser9) specific antibody (BioSource International, Inc.; Catalog #KHO0461). After incubation with cell lysates, the coated antibody captures the phosphorylated GSK3 protein. Following extensive washing, GSK3 polyclonal antibody is added to detect the captured phospho-GSK3 protein. Secondary antibody (anti-rabbit IgG-HRP) is then used to recognize the bound detection antibody. After the second incubation and washing to remove all the excess anti-rabbit IgG-HRP, a substrate solution is added, which is acted upon by the bound enzyme to produce color. The intensity of this colored product is directly proportional to the concentration of GSK-3β [pS9] present in the original specimen. MCF7 cells (ATCC HTB-22) were seeded into 96 well fate bottom plates at a density of 10000 cells/well. After 24 h 1 µl each of the compound dilutions (test compounds were dissolved as 10 mM solutions in dimethylsulfoxide (DMSO) and subsequently diluted) were added into each well of the 96 well plates and incubated for 48h at 37°C in a humidified athmosphere containing 5% CO2. Cells were harvested and lysed in cell extraction buffer (10 mM Tris, pH 7.4, 100 mM NaCl, 1 mM EDTA, 1 mM EGTA, 1 mM NaF, 20 mM Na4P2O7, 2 mM Na3VO4, 1% Triton X-100, 10vol% glycerol, 0.1vol% SDS, 0.5vol% deoxycholate, 1 mM phenylmethylsulfonylfluorid (PMSF)). The lysate were centrifuged for 10 min. at 4°C and the supernatant were transferred to a new tube. 50 µl of sample diluent (standard diluent buffer, Biosource) were added and 100 µl of cell lysate transferred into the tube and vortexed. 100 µl of each diluted cell lysate were added to the appropriate ELISA well plate and incubated for 3h at room temperature. The plates were washed 4 times with 1x wash buffer (Biosource). 50 µl of detection antibody (GSK3 (Ser9) detection antibody; BioSource) were added to each well and incubated for 30 min. at room temperature. The washing procedure was repeated between each step. 100µl of HRP-linked secondary antibody (anti-mouse IgG HRP-linked antibody) were added to each well and incubated for 30 min. at room temperature. 100µl of TMB substrate (0.05vol% 3,3',5,5' tetramethylbenzidine, 0.1vol% hydrogen peroxide, complex polypeptides in a buffered solution; Biosource) were added to each well and incubated for 30 min. at room temperature. Finally 100 µl of Stop solution (0.05vol% α and β unsaturated carbonyl compound) were added to each well and the plate were shaked gently for a few seconds. The absorbance was measured at λ = 450 nm (Wallac Victor2; Perkin Elmer, USA) within 30 min. after adding the stop solution. The analysis of the data was performed using a statistical program (Excel; Microsoft, USA) and the IC50 of pGSK3 inhibition was determined.

SMILES	IC50
CCc1cnc2nc(-c3ccc(CN4CCC(c5n[nH]c(-c6ccccn6)n5)CC4)cc3)c(-c3ccccc3)cn12 [Example 22, 3-ethyl-6-phenyl-7-(4-{[4-(5-pyridin-2-yl-1,2,4-triazol-3-yl)piperidin-1-yl]methyl}phenyl)imidazo[1,2-a]pyrimidine]	1000 to 10000 nM
c1ccc(-c2cn3ncnc3nc2-c2ccc(CN3CCC(c4n[nH]c(-c5ccccn5)n4)CC3)cc2)cc1 [Example 2, 6-phenyl-5-(4-([4-(5-pyridin-2-yl-1,2,4-triazol-3-yl)piperidin-1-yl]methyl}phenyl)[1,2,4]triazolo[1,5-a]pyrimidine]	1000 to 10000 nM
c1ccc(-c2cn3ccnc3nc2-c2ccc(CN3CCC(c4n[nH]c(-c5ccncc5)n4)CC3)cc2)cc1 [Example 6, 6-phenyl-7-(4-{[4-(5-pyridin-4-yl-1,2,4-triazol-3-yl)piperidin-1-yl]methyl}phenyl)imidazo[1,2-a]pyrimidine]	1000 to 10000 nM
c1ccc(-c2cn3ccnc3nc2-c2ccc(CN3CCC(c4n[nH]c(-c5cnccn5)n4)CC3)cc2)cc1 [Example 21, 6-phenyl-7-(4-{[4-(5-pyrazin-2-yl-1,2,4-triazol-3-yl)piperidin-1-yl]methyl}phenyl)imidazo[1,2-a]pyrimidine]	1000 to 10000 nM
Clc1cnc2nc(-c3ccc(CN4CCC(c5n[nH]c(-c6ccccn6)n5)CC4)cc3)c(-c3ccccc3)cn12 [Example 12, 3-chloro-6-phenyl-7-(4-{[4-(5-pyridin-2-yl-1,2,4-triazol-3-yl)piperidin-1-yl]methyl}phenyl)imidazo[1,2-a]pyrimidine]	1000 to 10000 nM
c1ccc(-c2cn3nccc3nc2-c2ccc(CN3CCC(c4n[nH]c(-c5ccccn5)n4)CC3)cc2)cc1 [Example 19, 6-phenyl-5-(4-{[4-(5-pyridin-2-yl-1,2,4-triazol-3-yl)piperidin-1-yl]methyl}phenyl)pyrazolo[1,5-a]pyrimidine]	1000 to 10000 nM
c1ccc(-c2cn3ccnc3nc2-c2ccc(CN3CCC(n4cnc(-c5ccccn5)c4)CC3)cc2)cc1 [Example 20, 6-phenyl-7-(4-{[4-(4-pyridin-2-yl-imidazol-1-yl)piperidin-1-yl]methyl}phenyl)imidazo[1,2-a]pyrimidine]	1000 to 10000 nM
c1ccc(-c2cn3ccnc3nc2-c2ccc(CN3CCC(c4cc(-c5ccccn5)n[nH]4)CC3)cc2)cc1 [Example 5, 6-phenyl-7-(4-{[4-(3-pyridin-2-yl-pyrazol-5-yl)piperidin-1-yl]methyl}phenyl)imidazo[1,2-a]pyrimidine]	1000 to 10000 nM
CCc1cn2cc(-c3ccccc3)c(-c3ccc(CN4CCC(c5n[nH]c(-c6ccccn6)n5)CC4)cc3)nc2n1 [Example 17, 2-ethyl-6-phenyl-7-(4-{[4-(5-pyridin-2-yl-1,2,4-triazol-3-yl)piperidin-1-yl]methyl}phenyl)imidazo[1,2-a]pyrimidine]	1000 to 10000 nM
N#Cc1cnc2nc(-c3ccc(CN4CCC(c5n[nH]c(-c6ccccn6)n5)CC4)cc3)c(-c3ccccc3)cn12 [Example 8, 6-phenyl-7-(4-{[4-(5-pyridin-2-yl-1,2,4-triazol-3-yl)piperidin-1-yl]methyl}phenyl)imidazo[1,2-a]pyrimidine-3-carbonitrile]	1000 to 10000 nM

Continued, values first:

IC50	SMILES
1000 to 10000 nM	c1ccc(-c2cn3nc(C4CC4)nc3nc2-c2ccc(CN3CCC(c4n[nH]c(-c5ccccn5)n4)CC3)cc2)cc1 [Example 4, 2-cyclopropyl-6-phenyl-5-(4-{[4-(5-pyridin-2-yl-1,2,4-triazol-3-yl)piperidin-1-yl]methyl}phenyl)[1,2,4]triazolo[1,5-a]pyrimidine]
1000 to 10000 nM	c1ccc(-c2cn3ccnc3nc2-c2ccc(CN3CCC(c4n[nH]c(-c5ncccn5)n4)CC3)cc2)cc1 [Example 18, 6-phenyl-7-(4-{[4-(5-pyrimidin-2-yl-1,2,4-triazol-3-yl)piperidin-1-yl]methyl}phenyl)imidazo[1,2-a]pyrimidine]
1000 to 10000 nM	Fc1cnc2nc(-c3ccc(CN4CCC(c5n[nH]c(-c6ccccn6)n5)CC4)cc3)c(-c3ccccc3)cn12 [Example 9, 3-fluoro-6-phenyl-7-(4-{[4-(5-pyridin-2-yl-1H-1,2,4-triazol-3-yl)piperidin-1-yl]methyl}phenyl)imidazo[1,2-a]pyrimidine]
1000 to 10000 nM	C#Cc1cnc2nc(-c3ccc(CN4CCC(c5n[nH]c(-c6ccccn6)n5)CC4)cc3)c(-c3ccccc3)cn12 [Example 13, 3-ethynyl-6-phenyl-7-(4-{[4-(5-pyridin-2-yl-1,2,4-triazol-3-yl)piperidin-1-yl]methyl}phenyl)imidazo[1,2-a]pyrimidine]
1000 to 10000 nM	Cc1cnc2nc(-c3ccc(CN4CCC(c5n[nH]c(-c6ccccn6)n5)CC4)cc3)c(-c3ccccc3)cn12 [Example 14, 3-methyl-6-phenyl-7-(4-{[4-(5-pyridin-2-yl-1,2,4-triazol-3-yl)piperidin-1-yl]methyl}phenyl)imidazo[1,2-a]pyrimidine]
1000 to 10000 nM	C=Cc1cnc2nc(-c3ccc(CN4CCC(c5n[nH]c(-c6ccccn6)n5)CC4)cc3)c(-c3ccccc3)cn12 [Example 15, 6-phenyl-7-(4-{[4-(5-pyridin-2-yl-1,2,4-triazol-3-yl)piperidin-1-yl]methyl}phenyl)-3-vinylimidazo[1,2-a]pyrimidine]
< 1000 nM	c1ccc(-c2cn3nc(C4CCC4)nc3nc2-c2ccc(CN3CCC(c4n[nH]c(-c5ccccn5)n4)CC3)cc2)cc1 [Example 7, 2-cyclobutyl-6-phenyl-5-(4-{[4-(5-pyridin-2-yl-1,2,4-triazol-3-yl)piperidin-1-yl]methyl}phenyl)[1,2,4]triazolo[1,5-a]pyrimidine]
< 1000 nM	CNc1c(-c2ccccc2)c(-c2ccc(CN3CCC(c4n[nH]c(-c5ccccn5)n4)CC3)cc2)nc2nccn12 [Example 10, N-methyl-6-phenyl-7-(4-{[4-(5-pyridin-2-yl-1,2,4-triazol-3-yl)piperidin-1-yl]methyl}phenyl)imidazo[1,2-a]pyrimidin-5-amine]
1000 to 10000 nM	Cc1nc2nc(-c3ccc(CN4CCC(c5n[nH]c(-c6ccccn6)n5)CC4)cc3)c(-c3ccccc3)cn2n1 [Example 3, 2-methyl-6-phenyl-5-(4-{[4-(5-pyridin-2-yl-1,2,4-triazol-3-yl)piperidin-1-yl]methyl}phenyl)[1,2,4]triazolo[1,5-a]pyrimidine]
< 1000 nM	Brc1cnc2nc(-c3ccc(CN4CCC(c5n[nH]c(-c6ccccn6)n5)CC4)cc3)c(-c3ccccc3)cn12 [Example 11, 3-bromo-6-phenyl-7-(4-{[4-(5-pyridin-2-yl-1,2,4-triazol-3-yl)piperidin-1-yl]methyl}phenyl)imidazo[1,2-a]pyrimidine]
< 1000 nM	c1ccc(-c2cn3ccnc3nc2-c2ccc(CN3CCC(c4nc(-c5ccccn5)n[nH]4)CC3)cc2)cc1 [Example 1, 6-phenyl-7-(4-{[4-(3-pyridin-2-yl-1,2,4-triazol-5-yl)piperidin-1-yl]methyl}phenyl)imidazo[1,2-a]pyrimidine]
